Laboratory results reported in patent publication US8192962B2, “Processes for detecting toxic substances” (Daikin Industries, Ltd., priority 2001, dated 2012).

Test system: Metabolism protein genes
Test: DNA chip mRNA expression in yeast, metabolism protein genes (Table 7)
Type: cell-based, Saccharomyces cerevisiae S288C
Method: Yeast (Saccharomyces cerevisiae S288C (α SUC2mal mel gap2 CUP1)) were incubated at 25° C. on YPD medium (yeast extract 1%, polypepton 2%, glucose 2%). One of toxic chemical substances was added to the cells at logarithmic growth phase, and the cells were further incubated for two hours. Cells were cultured without any chemical substance in the same condition, and were used as control. Concentrations of the chemical substances were defined to inhibit the growth of the yeast but not lead to death.
After completion of the incubation, the culture was centrifuged to collect the cells. To the cells, sodium acetate buffer (50 mM sodium acetate, 10 mM EDTA, 1% SDS) was added, and the mixture was shaken at 65° C. for five minutes, followed by returning to room temperature, and obtaining the supernatant, of which the procedures were repeated two times. To the supernatant, ½ amount of a solution of phenol/chloroform was added, and the mixture was centrifuged to give a supernatant, which was added with an equal amount of chloroform, and the mixture was centrifuged to give a supernatant. To the supernatant, an equal amount of isopropanol containing 0.3 M sodium acetate was added, and the mixture was allowed to stand at room temperature for 30 minutes, after which the mixture was centrifuged to give a sediment of the whole RNAs. Seventy % ethanol was added to the sediment, and the mixture was again centrifuged to give a sediment, which was then dried and dissolved in water. mRNA was isolated from the whole RNAs as followings. In view of the fact that a poly A chain is attached to the 3′ terminus of mRNA, a polynucleotide having a poly T structure which was immobilized on the surface of latex beads was used to trap the mRNA, and then the mRNA was washed and eluted with spine column (Oligotex-dT30<Super>mRNA Purification Kit, Takara). Reverse transcription of the mRNA was conducted with a reverse transcriptase (Super Script II Reverse Transcriptase; catalogue No. 18064-014, GibcoBRL) using fluorescence-labeled nucleotides to give cDNAs that were introduced with Cy3-dUTP or Cy5-dUTP during the reverse transcription.
The labeled cDNAs were dissolved in TE buffer (10mM Tris-HCl/1 mM EDTA, pH8.0), and the solution was dropped on the DNA chip containing the whole genes of yeast (DNA Chip Research Inc. Japan) so that the cDNAs were hybridized on the DNA chip at 65° C. for over 12 hours. The fluoresces intensity of the DNA chip was read with a scanner, and the ratio relative to the fluorescence intensity resulting from the absence of chemical substance was estimated as the following, which is shown in Tables 1 to 9: […]

## O=[N+]([O-])c1cc[n+]([O-])c2ccccc12 [(5), 4-nitroquinolin-N-oxide]
Yeast gene YFL056C
  The level of expressed mRNA in the presence of chemical substance/The level of expressed mRNA in the absence of chemical substance: 0.9
Yeast gene YFL057C
  The level of expressed mRNA in the presence of chemical substance/The level of expressed mRNA in the absence of chemical substance: 0.9
Yeast gene YFR047C
  The level of expressed mRNA in the presence of chemical substance/The level of expressed mRNA in the absence of chemical substance: 1.2
Yeast gene YGL012W
  level of expressed mRNA in the presence/in the absence of chemical substance: 1.5
Yeast gene YGL022W
  The level of expressed mRNA in the presence of chemical substance/The level of expressed mRNA in the absence of chemical substance: 1.0
Yeast gene YGL115W
  level of expressed mRNA in the presence/in the absence of chemical substance: 1.2
Yeast gene YGL126W
  The level of expressed mRNA in the presence of chemical substance/The level of expressed mRNA in the absence of chemical substance: 1.1
Yeast gene YGL205W
  level of expressed mRNA in the presence/in the absence of chemical substance: 1.1
Yeast gene YGL209W
  The level of expressed mRNA in the presence of chemical substance/The level of expressed mRNA in the absence of chemical substance: 0.7
Yeast gene YGL248W
  The level of expressed mRNA in the presence of chemical substance/The level of expressed mRNA in the absence of chemical substance: 1.3
Yeast gene YGR037C
  The level of expressed mRNA in the presence of chemical substance/The level of expressed mRNA in the absence of chemical substance: 1.0
Yeast gene YGR055W
  The level of expressed mRNA in the presence of chemical substance/The level of expressed mRNA in the absence of chemical substance: 1.3
Yeast gene YGR096W
  level of expressed mRNA in the presence/in the absence of chemical substance: 1.2
Yeast gene YGR191W
  level of expressed mRNA in the presence/in the absence of chemical substance: 0.8
Yeast gene YGR194C
  The level of expressed mRNA in the presence of chemical substance/The level of expressed mRNA in the absence of chemical substance: 0.8
Yeast gene YGR204W
  level of expressed mRNA in the presence/in the absence of chemical substance: 0.6
Yeast gene YGR256W
  The level of expressed mRNA in the presence of chemical substance/The level of expressed mRNA in the absence of chemical substance: 0.9
Yeast gene YGR282C
  The level of expressed mRNA in the presence of chemical substance/The level of expressed mRNA in the absence of chemical substance: 1.0
Yeast gene YGR288W
  level of expressed mRNA in the presence/in the absence of chemical substance: 0.8
Yeast gene YHR025W
  level of expressed mRNA in the presence/in the absence of chemical substance: 0.9
Yeast gene YHR111W
  The level of expressed mRNA in the presence of chemical substance/The level of expressed mRNA in the absence of chemical substance: 1.5
Yeast gene YHR137W
  The level of expressed mRNA in the presence of chemical substance/The level of expressed mRNA in the absence of chemical substance: 1.0
Yeast gene YHR174W
  The level of expressed mRNA in the presence of chemical substance/The level of expressed mRNA in the absence of chemical substance: 1.3
Yeast gene YHR176W
  The level of expressed mRNA in the presence of chemical substance/The level of expressed mRNA in the absence of chemical substance: 1.0
Yeast gene YHR210C
  level of expressed mRNA in the presence/in the absence of chemical substance: 1.8
Yeast gene YIL006W
  level of expressed mRNA in the presence/in the absence of chemical substance: 0.8
Yeast gene YIL045W
  The level of expressed mRNA in the presence of chemical substance/The level of expressed mRNA in the absence of chemical substance: 1.3
Yeast gene YIL107C
  The level of expressed mRNA in the presence of chemical substance/The level of expressed mRNA in the absence of chemical substance: 0.8
Yeast gene YIL154C
  The level of expressed mRNA in the presence of chemical substance/The level of expressed mRNA in the absence of chemical substance: 0.9
Yeast gene YIL155C
  The level of expressed mRNA in the presence of chemical substance/The level of expressed mRNA in the absence of chemical substance: 1.3
Yeast gene YIL167W
  The level of expressed mRNA in the presence of chemical substance/The level of expressed mRNA in the absence of chemical substance: 1.0
Yeast gene YIR031C
  The level of expressed mRNA in the presence of chemical substance/The level of expressed mRNA in the absence of chemical substance: 1.6
Yeast gene YIR034C
  The level of expressed mRNA in the presence of chemical substance/The level of expressed mRNA in the absence of chemical substance: 1.1
Yeast gene YIR036C
  The level of expressed mRNA in the presence of chemical substance/The level of expressed mRNA in the absence of chemical substance: 0.9
Yeast gene YJL031C
  The level of expressed mRNA in the presence of chemical substance/The level of expressed mRNA in the absence of chemical substance: 1.7
Yeast gene YJL068C
  The level of expressed mRNA in the presence of chemical substance/The level of expressed mRNA in the absence of chemical substance: 0.7
Yeast gene YJL088W
  The level of expressed mRNA in the presence of chemical substance/The level of expressed mRNA in the absence of chemical substance: 0.9
Yeast gene YJL099W
  The level of expressed mRNA in the presence of chemical substance/The level of expressed mRNA in the absence of chemical substance: 1.9
Yeast gene YJL121C
  level of expressed mRNA in the presence/in the absence of chemical substance: 1.0
Yeast gene YJL167W
  level of expressed mRNA in the presence/in the absence of chemical substance: 0.7
Yeast gene YJL172W
  The level of expressed mRNA in the presence of chemical substance/The level of expressed mRNA in the absence of chemical substance: 0.9
Yeast gene YJL216C
  level of expressed mRNA in the presence/in the absence of chemical substance: 0.8
Yeast gene YJL219W
  The level of expressed mRNA in the presence of chemical substance/The level of expressed mRNA in the absence of chemical substance: 1.2
Yeast gene YJR077C
  level of expressed mRNA in the presence/in the absence of chemical substance: 0.9
Yeast gene YJR137C
  The level of expressed mRNA in the presence of chemical substance/The level of expressed mRNA in the absence of chemical substance: 0.6
Yeast gene YJR143C
  level of expressed mRNA in the presence/in the absence of chemical substance: 1.6
